Results as given in patent US20110118224A1, “USE OF STEROID SULFATASE INHIBITORS FOR THE TREATMENT OF PRETERM LABOR” (priority 2008, published 2011).

What was measured:
[1] = test system: time-mated female Sprague-Dawley rats; test: Developmental toxicity in the rat; format: in vivo
Description: The safety of a use of a steroid sulfatase inhibitor according to the invention, measured by no or minor effects induced on foetus development during gestation in pregnant rat can be investigated as follows.
The effects of a steroid sulfatase inhibitor according to the invention (Estradiol Sulfamate or E2MATE) on the embryonic and foetal development of the rat was investigated when administered during the period of organogenesis (Days 6 to 17 of gestation). Four groups each of 20 time-mated female Sprague-Dawley rats were dosed with 0 (Control), 7.5, 22 or 60 μg/kg/day of Estardiol sulfamate from Day 6 to Day 17 of gestation. A further group of twenty females was dosed with ethinylestradiol at 80 μg/kg/day and acted as a positive control.
Clinical observations, bodyweight and food consumption were recorded and the progress and outcome of pregnancy was assessed on Day 20 of gestation. Foetal pathology to assess abnormalities and variations was carried out on all foetuses.

[2] = test system: time-mated female New Zealand White rabbits; test: Developmental toxicity in the rabbit; format: in vivo
Description: The safety of a use of a steroid sulfatase inhibitor according to the invention, measured by no or minor effects induced on foetus development during gestation in pregnant rabbit can be investigated as follows.
The effects of a steroid sulfatase inhibitor according to the invention (Estradiol Sulfamate or E2MATE) on the embryonic and foetal development of the rabbit when administered during the period of organogenesis (Days 6 to 18 of gestation). Four groups each of between 20 to 25 time-mated female New Zealand White rabbits were dosed with 0 (Control), 5, 15 or 50 μg/kg/day from Day 6 to Day 18 of gestation. A further group of twenty females was administered with ethinylestradiol at 50 μg/kg/day and acted as a positive control. Clinical observations, bodyweight and food consumption were recorded and the progress and outcome of pregnancy was assessed on Day 28 of gestation. Foetal pathology to assess abnormalities and variations was carried out on all foetuses

[3] = Placental barrier crossing ability measurement (whole body autoradiography of 14C-labeled compound); format: in vivo, rat; conditions: for Passage of the placental barrier: compound and/or its main metabolite
Experimental: The ability of a steroid sulfatase inhibitor according to the invention to cross the placental barrier can be investigated as follows. This assay was performed with a steroid sulfatase inhibitor according to the invention (Estradiol Sulfamate or E2MATE) which is used for the treatment of symptoms related to estrogen deficiency in postmenopausal or hysterectomized women.
Six female albino rats received a single intravenous bolus dose of 0.47 mg ^14C-labeled Estradiol Sulfamate per kg. Six female albino, 3 pregnant albino and 4 female pigmented rats received 1 mg ^14C-labeled Estradiol Sulfamate per kg as an intragastic dose. […] Animals were deeply frozen in a mixture of hexane and dry ice and embedded into a block of carboxymethyl cellulose, which was frozen and stored at approximately −20° C. External standards were used for semi-quantitative evaluation of radioluminograms and were prepared by spiking an erythrocyte concentrate with different concentrations of ^14C-radioactivity. Pores were drilled into a separate block of carboxymethyl cellulose, filled with external standards and frozen at approximately −20° C. Whole body sagittal sections of 50 μm thickness were taken through each animal and the external standard block using a Leica CM 3600 cryomicrotome. After freeze drying of the sections in the cryostat for a minimum time of 48 hours, they were exposed to an Imaging Plate (IP) for a period of 4 to 24 hours and the IP was scanned using the bioimaging analyzer BAS 2000. For evaluation, the external standard samples were related to a colored scale using the software AIDA (Advanced Image Data Analysis, version 3.10, Raytest, Germany), each color representing a specific radioactive concentration (MBq). The different tissues were compared semi-quantitatively to the external standards and concentration ranges were determined.

[4] = dosed Day 6 to Day 17 of gestation
[5] = dosed Day 6 to Day 18 of gestation
[6] = 1 h post-dose, 1 mg/kg i.g., pregnant albino rats, semi-quantitative

C[C@]12CC[C@@H]3c4ccc(OS(N)(=O)=O)cc4CC[C@H]3[C@@H]1CC[C@@H]2O [Estradiol Sulfamate]
Effects in foetuses / teratogenic action ([1]; at about 22 μg/kg/day): some minor effects in foetuses but no teratogenic action
No Observed Adverse Effect Level (NOAEL) for foetal development [1, 4]: about 22 μg/kg/day
No Observed Effect Level (NOEL) for female toxicity [1, 4]: about 7.5 μg/kg/day
Observed female toxicity at the higher doses ([1]; doses above 7.5 μg/kg/day (22 or 60 μg/kg/day)): limited to reduced food consumption and an associated reduction in bodyweight gain during gestation
No Observed Adverse Effect Level (NOAEL) for embryofoetal development [2, 5]: about 15 μg/kg/day
No Observed Adverse Effect Level for maternal toxicity during the period of organogenesis [2, 5]: about 5 μg/kg/day
Dosage-related maternal effects at higher doses ([2]; doses above 5 μg/kg/day (15 or 50 μg/kg/day)): limited to lower bodyweight gain and food consumption
Tolerance by the females compared with ethinylestradiol (positive control) ([2]; ethinylestradiol at 50 μg/kg/day): generally better tolerated
Distribution of radiolabel in pregnant albino animals compared to female albino rats ([3]; 1 mg/kg 14C-labeled, intragastric, pregnant (18 day p.c.) albino rats): similar
14C-concentrations in pregnant animals versus non-pregnant animals ([3]; 1 h post-dose, 1 mg/kg i.g.): slightly higher
14C-radiolabel concentration in foetal liver [3, 6]: high range
14C-radiolabel concentration in foetal membranes [3, 6]: medium
14C-radiolabel concentration in mammary gland [3, 6]: medium
14C-radiolabel concentration in placenta [3, 6]: high range
14C-radiolabel concentration in the foetus [3, 6]: high range
14C-concentrations (foetus, foetal liver, placenta, mammary gland, foetal membranes) ([3]; 7 h and 1 day post dose, 1 mg/kg i.g., pregnant albino rats): between the higher low and the lower high range
general radiolabel concentration in pregnant animals versus non-pregnant animals ([3]; after 7 h, 1 mg/kg i.g.): lower
Passage of the placental barrier ([3]; pregnant albino rats): passed the placental barrier reversibly

CC12CCC3c4ccc(OS(N)(=O)=O)cc4CCC3C1CCC2=O (stereo not shown) [Estrone Sulfamate]
Passage of the placental barrier ([3]; pregnant albino rats): passed the placental barrier reversibly
